Experimental data as given in patent US20060287316A1, “METHOD FOR IMPROVING PHARMACOKINETICS OF PROTEASE INHIBITORS AND PROTEASE INHIBITOR PRECURSORS” (priority 2005, published 2006).
≈ marks a conversion by molar mass, not a printed value. Where “and” joins values, the source holds several entries; their conditions need not be identical. Identical values can stand only once. Like-named read-outs stand apart in the source and are kept apart here.

Tests used:
Water solubility = format: physicochemical; details: water, pH 7.5, aqueous buffer
[1] = test system: laboratory adapted HIV strain (NL4-3); assay: microbe, parasite or virus in culture
Experimental: Briefly, the antiviral activity of PL-100 was determined using MT4 cells infected with a laboratory adapted HIV strain (NL4-3). For comparison, seven approved protease inhibitors (PIs) were tested in parallel.
The effect of 40% human serum on the antiviral activity of PL-100 in MT4 cells infected with NL4-3 was therefore evaluated.

[2] = Cytotoxicity in the same cell culture system; format: cell-based; details: human, MT4 cells
Experimental: Cytotoxicity of PL-100 and other P is was evaluated in the same cell culture system. The selectivity index (SI) is the ratio of cytotoxicity (CC50) to antiviral activity (EC50). The selective index is similar to the therapeutic index but relates to in vitro studies.

CYP3A4/5 = assay: Inhibition of CYP450 sub-families; format: biochemical; details: FIG. 10
[3] = Plasma concentration after single oral dose in rats (in vivo cleavage of the phosphate group); parameters: species or system male Sprague-Dawley rats; details: 50 mg/Kg po, vehicle Mix, 3 rats
Experimental: To assess the extent of in vivo cleavage of the phosphate group from the putative compounds, PL-100, PL-462 (based on PL-100), PL-337 and PL-515 (based on PL-337) compounds were administered po (per os, (i.e., by mouth)) (50 mg/kg) to male Sprague-Dawley rats and their plasma concentration measured at different time intervals post-administration.
All test articles (PL-100, PL-462, PL-337 and PL-515) were prepared in different vehicle at the final concentration of 25 mg/mL. The vehicle composition is as follows: (1) 20% ethanol; 50% propylene glycol; 0.05% w/v Tween 20 and water (Mix); (2) PBS buffer (PBS).
Test articles were administered to male Sprague-Dawley rats at a single oral dose of 50 mg/kg. Each article was tested in three rats. Blood samples (0.2-0.3 mL) were collected at the post-dose time of 10, 20, 40, 60, 120, 180 and 360 minutes. The harvested blood was centrifuged to isolate plasma. The resulting plasma was separated and stored at −70° C.
Plasma samples together with standards and quality control samples were treated to precipitate proteins, then analyzed by HPLC-MS, for the presence of PL-462, PL-100, PL-515 and PL-337.

[4] = test system: 63 HIV isolates with reduced susceptibility to all approved protease inhibitors; format: cell-based, HIV-1; details: for % viral strains with EC95s ≦ 200 ng/ml / % viral strains with EC95s ≦ 630 ng/ml: protein-binding adjusted EC95
From the text: The cross-resistance profile of PL-100 against 63 HIV isolates with reduced susceptibility to all approved protease inhibitors (P is) including atazanavir was thus tested.
The panel of 63 viral strains was selected based on the following rationale: 1) High-level loss of susceptibility to specific P is; 2) High-level loss of susceptibility to multiple P is; 3) Good representation of the primary mutations. This panel consists of resistant viruses from highly PI-experienced patients with high-level PI resistance.
The genotype of these viruses encompasses a wide variety of mutational patterns. We particularly looked for the following primary PI mutations: D30N, L33F/I, M461/L, G48V, I50L/V, V82A/F/S/T, I84V and L90M as defined by the International AIDS Society (IAS)-USA.
The dark cells indicate a […], the grey cells indicate FC values of 2.5≦FC<10 and the white cells indicate a FC value of; 0≦FC<2.5. The results of cross-resistance profile are further illustrated in the graph of FIG. 1.
In the cross-resistance profiling studies against the 63 resistant strains mentioned herein, EC95 of PL-100 was determined against each strain. The median EC95 represents the concentration required to inhibit 95% of the viral replication of 50% diverse drug-resistant HIV-1 variants tested. Table 8 illustrates the percentage of resistant strains tested with protein-binding adjusted EC95s≦200 ng/ml. The resistant strains are grouped by the number of primary mutations they have.
The EC95 of PL-100 was determined against each of the 63 resistant strains indicated herein. Table 9 illustrates the percentage of resistant strains tested with protein-binding adjusted EC95s≦630 ng/ml. The resistant strains are grouped by the number of primary mutations they have.

[5] = 63 diverse, multi-PI-resistant strains
[6] = 63 diverse, multi-PI-resistant strains, FC in IC50 vs NL-4.3
[7] = strains with 0 primary PI mutations
[8] = strains with 1 primary PI mutation
[9] = strains with 2 primary PI mutations
[10] = strains with 3 primary PI mutations
[11] = strains with 4 primary PI mutations
[12] = strains with 5-6 primary PI mutations

In the case of COC(=O)N[C@H](C(=O)NCCCC[C@@H](CO)N(CC(C)C)S(=O)(=O)c1ccc(N)cc1)C(c1ccccc1)c1ccccc1 [PL-100, (1S,5S)-(1-{5-[(4-amino-benzenesulfonyl)-isobutyl-amino]-6-hydroxy-hexylcarbamoyl}-2,2-diphenyl-ethyl)-carbamic acid methyl ester], the solubility (Water solubility) is reported as 79 µg/mL (≈ 126 µM), the EC50 ([1]; Human immunodeficiency virus 1, NL43, MT4, MT4 cells infected with NL4-3) is reported as 16 nM and the EC50 ([1]; Human immunodeficiency virus 1, NL43, MT4, culture condition 10% FBS) is reported as 18 nM. For the same molecule, the EC50 ([1]; Human immunodeficiency virus 1, NL43, MT4, culture condition 10% FBS + 40% human serum) was 100 nM, the “Fold Change in EC50” value ([1]; culture condition 10% FBS) was 1.0 and the “Fold Change in EC50” value ([1]; culture condition 10% FBS + 40% human serum) was 6 and 5.9. For the same molecule, the “SI (CC50/EC50)” value ([1]; ratio of cytotoxicity (CC50) to antiviral activity (EC50)) was 2,063, the CC50 [2] was 33000 nM and the “Inhibition of CYP3A4/5” value (CYP3A4/5) was “inhibits CYP3A4/5”. The AUC [3] was 0.675 ± 0.171 μg/hr * ml, the Cmax [3] was 498 ± 203 nM and the Tmax [3] was 40 ± 16 min. For the same molecule, the “% FC < 2.5” value [4, 5] was 37%, the “% FC < 10” value [4, 5] was 76% and the “% FC > 50” value [4, 5] was 3%. For the same molecule, the “Mean FC” value [4, 6] was 8.7, the “Median FC” value [4, 6] was 3.6 and the “% viral strains with EC95s ≦ 200 ng/ml” value [4, 7] was 100%. The “% viral strains with EC95s ≦ 630 ng/ml” value [4, 7] was 100%, the “% viral strains with EC95s ≦ 200 ng/ml” value [4, 8] was 100% and the “% viral strains with EC95s ≦ 630 ng/ml” value [4, 8] was 100%. The “% viral strains with EC95s ≦ 200 ng/ml” value [4, 9] was 36%, the “% viral strains with EC95s ≦ 630 ng/ml” value [4, 9] was 82% and the “% viral strains with EC95s ≦ 200 ng/ml” value [4, 10] was 23%. For the same molecule, the “% viral strains with EC95s ≦ 630 ng/ml” value [4, 10] was 55%, the “% viral strains with EC95s ≦ 200 ng/ml” value [4, 11] was 0% and the “% viral strains with EC95s ≦ 630 ng/ml” value [4, 11] was 29%. The “% viral strains with EC95s ≦ 200 ng/ml” value [4, 12] was 0%, the “% viral strains with EC95s ≦ 630 ng/ml” value [4, 12] was 0% and the “Fold change in IC50 vs. Reference” value ([4]; sample O3-129578, 46I/82T/84V, panel ID 11) was 1.2. The “Fold change in IC50 vs. Reference” value ([4]; sample O3-129585, 48V/54V/82A/90M, panel ID 26) was 1.9, the “Fold change in IC50 vs. Reference” value ([4]; sample O3-129586, 30N/88D/90M, panel ID 28) was 1.4 and the “Fold change in IC50 vs. Reference” value ([4]; sample O3-148709 (non-B subtype), 32I/47A, panel ID 1) was 1.4. The “Fold change in IC50 vs. Reference” value ([4]; sample O3-1129583, 84V/90M, panel ID 21) was 2.3, the “Fold change in IC50 vs. Reference” value ([4]; sample O4-148712, 46I/88S, panel ID 122) was 0.8 and the “Fold change in IC50 vs. Reference” value ([4]; sample O4-148712, 46I/88S, panel ID 124) was 1.1. The “Fold change in IC50 vs. Reference” value ([4]; sample O4-148713, 46I/88S, panel ID 123) was 0.4, the “Fold change in IC50 vs. Reference” value ([4]; sample O4-148716, 33F/54L/88S/90M, panel ID 10) was 1.7 and the “Fold change in IC50 vs. Reference” value ([4]; sample O4-148721, 32I/46I/47V/50L, panel ID 127) was 1.1. For the same molecule, the “Fold change in IC50 vs. Reference” value ([4]; sample O4-148725, 32I/46L/47V/84V, panel ID 53) was 0.6, the “Fold change in IC50 vs. Reference” value ([4]; sample O4-148739, 48V/54V/82A/90M, panel ID 138) was 1.1 and the “Fold change in IC50 vs. Reference” value ([4]; sample O4-148742, 46L/48V/82A/84V, panel ID 94) was 1.2. For the same molecule, the “Fold change in IC50 vs. Reference” value ([4]; sample O4-148748, 37S/41K/70E, panel ID 115) was 0.9, the “Fold change in IC50 vs. Reference” value ([4]; sample O4-148749, 37T/41K/70E, panel ID 151) was 1.9 and the “Fold change in IC50 vs. Reference” value ([4]; sample O4-148751, 54V/84V, panel ID 171) was 0.8. For the same molecule, the “Fold change in IC50 vs. Reference” value ([4]; sample O4-148752, 54V/84V, panel ID 152) was 1.2.
